How the values were obtained:
125I-LDL = assay: Degradation of exogenously added 125I-LDL (lysosomal inhibition control); assay type: cell-based, rat
Method: (§1) To determine whether the proteasome mediated Ω-3 fatty acid-induced apoB degradation, rat hepatoma cells were incubated at 37° C. for 4 hr in [^35S]methionine-containing medium supplemented with either BSA or EPA/BSA complexes in the absence or presence of the proteasome inhibitor, lactacystin ([…]; purchased from the laboratory of Dr. E. J. Corey, Harvard University). Samples of cell lysates and conditioned media were subjected to immunoprecipitation analysis with anti-apoB antiserum, followed by SDS-PAGE and fluorography. To determine whether Ω-3 fatty acids targeted apoB to lysosomal degradation, a similar experiment was performed substituting ammonium chloride (40 mM) for lactacystin.
(§2) More evidence against the involvement of re-uptake in Ω-3 fatty acid-induced degradation of apoB is based on the knowledge that lipoproteins captured by either LDL receptors (Brown, M. S., and Goldstein, J. L. (1986) Science 232(4746), 34-47) or heparan sulfate proteoglycans (Williams, K. J. et al. (1992) J Biol Chem 267(19), 13284-92; and Fuki, I. V. et al. (2000) J Biol Chem 275(33), 25742-50) are directed to lysosomes. Thus, rat primary hepatocytes cells were treated with either OA or DHA in the absence or presence of ammonium chloride, a lysosomal inhibitor. […]

rat hepatoma cells [1] = assay: Cell toxicity by TCA-PTA precipitation analysis; assay type: cell-based; conditions: 40 mM
Method: After electrophoresis, the gels were stained, fixed, soaked in Enhance fluor solution, and dried following protocols supplied by the manufacturer. Dried gels were then exposed to X-ray film at −70° C. and signals on the resulting fluorograms were typically quantified by densitometry or phosphorimaging. Using the total radioactivity applied to each lane of the gel and the relative signal intensity of each band in that lane, the radioactivity associated with each apoprotein species was calculated. In some cases, gel bands were excised and the incorporated radioactivity measured directly by scintillation counting. As a control, the incorporation of [^35S]methionine into total cellular and secreted proteins was measured by TCA-PTA precipitation, as described in Wang, H., Chen, X., and Fisher, E. A. (1993) J Clin Invest 91(4), 1380-9.
as §1, with “To determine whether Ω-3 fatty acids targeted apoB to lysosomal degradation, a similar experiment was performed substituting ammonium chloride (40 mM) for lactacystin.” left out

rat primary hepatocytes [2] = assay: Lysosomal inhibition and DHA-induced degradation of newly synthesized apoB; assay type: cell-based; conditions: with lysosomal inhibitor
Method: as §1, §2

rat hepatoma cells [3] = assay: Pulse-chase recovery of [35S]-apoB100 (apoB100 degradation) in rat hepatoma cells; assay type: cell-based; conditions: co-treatment with DHA, FIG. 13A and 13B
Method: (§3) FIG. 13 illustrates that either an iron chelator (DFX) or lipid antioxidants block DHA-stimulated apoB degradation and reactive oxygen species (ROS) production. Rat hepatoma cells were plated in culture wells and pre-incubated in media containing either DHA or DHA with one of the indicated compounds. Radiolabeled methionine/cysteine was added to the culture media for 15 minutes, after which time, the culture media were replaced by fresh media identical in composition except that radiolabeled methionine/cysteine were replaced by unlabeled methionone/cysteine. The recovery of labeled apoB100 ([^35S]-apoB100) from the media and cell lysate was determined at the indicated time points (with time 0 being the point when the fresh media were applied to the cells) by immunoprecipitating apoB species with a rabbit polyclonal antibody to rat apoB, resuspending the immunoprecipitates, combining aliquots from cell lysate and media samples from each well, resolving the protein contents of the combined immunoprecipitates by SDS-polyacrylamide gel electrophoresis (SDS-PAGE), and exposing the resultant gels to X-ray film in order to visualize the labeled apoB bands. In panel A are shown representative signals for radiolabeled apoB100 in each of the treatment conditions. […] For each treatment, there were at least 2 wells/treatment for each time point and the entire experiment repeated. The signal intensities of the apoB100 bands were quantified by densitometry and the mean relative recoveries (the % of the 15 minute, or initial, value still remaining at 120 minutes) ±SEM are shown in panel B. Note that the visual impressions observable in panel A are confirmed by the quantitative analysis; i.e., there is a substantial increase in labeled apoB100 recovery with any of the co-treatments. In panel C, the ROS content of the cell lysates at the end of the experiment was measured by the standard TBARS assay (Stocks et al., 1974, Clin Sci Mol Med 47,215-222). Note that compared to control (BSA), DHA induced a large increase in TBARS, as expected because of its high content on unsaturated bonds.
FIG. 14 illustrates that DHA, but not saturated MA, induces apoB100 degradation in rat hepatoma cells. An experiment similar to the one described in FIG. 13 was performed, with the following changes: A) The immunoprecipitates from cell lysate and media samples were not combined, but separately analyzed. B) In addition to the 15 and 120 minute time points, apoB recovery was determined at 30 minutes. C) In addition to DHA, the effects of the fatty acid myristic (MA) were also tested because it has no unsaturated bonds and should not give rise to ROS.
FIG. 15 illustrates that AA stimulates apoB100 degradation and increases ROS. […] Note in the upper panel that the combined recovery (from two separate wells/time point) of radiolabeled apoB100 decreased from 15 to 120 minutes, indicating significant apoB100 degradation had occurred in the presence of AA. […] In addition to being a source of ROS, AA can also be converted by cyclooxygenase (COX) to bioactive prostaglandin compounds. We therefore repeated the experiment with AA but with co-treatment by the COX inhibitor aspirin.
To further explore the underlying mechanisms, rat hepatoma cells or primary hepatocytes were incubated with the Ω-3 fatty acid DHA complexed to BSA, while blocking candidate cellular mediators. […] There was, however, strong evidence against a role for calcium. Chelation of intracellular Ca^++ with BAPTA-AM, pharmacologic blockage of Ca^++ channels, depletion of the ER-calcium pool, and increasing Ca++ influx with an ionophore each had no effect. Because EGTA also chelates Fe^+++, and DHA is subject to Fe^+++-dependent peroxidation, the role of this lipid modification was examined. As shown in FIG. 13A and 13B, Desferroxamine (DFX), a chelator of Fe^+++, the antioxidant vitamin E (Vit E), and the synthetic antioxidant BHT, each inhibited DHA-stimulated apoB100 degradation by ˜60%.

rat hepatoma cells [4] = assay: TBARS assay of ROS in cell lysates of rat hepatoma cells; assay type: cell-based; conditions: co-treatment with DHA, FIG. 13C
Method: as §3, with “bonds. […] FIG. 15 illustrates that AA stimulates apoB100 degradation and increases ROS. […] Note in the upper panel that the combined recovery (from two separate wells/time point) of radiolabeled apoB100 decreased from 15 to 120 minutes, indicating significant apoB100 degradation had occurred in the presence of AA. […] In addition to being a source of ROS, AA can also be converted by cyclooxygenase (COX) to bioactive prostaglandin compounds. We therefore repeated the experiment with AA but with co-treatment by the COX inhibitor aspirin.” for “bonds.”

rat primary hepatocytes [5] = assay: Basal apoB100 degradation (pulse-chase recovery) in rat primary hepatocytes; assay type: cell-based; conditions: FIG. 16A
rat primary hepatocytes [6] = assay: TBARS assay of ROS in rat primary hepatocytes; assay type: cell-based; conditions: FIG. 16B

| Compound | inhibition of the degradation of exogenously added 125I-LDL (125I-LDL; ammonium chloride 40 mM) [%] | degradation of 125I-LDL (125I-LDL; rat primary hepatocytes) | cell toxicity assessed by TCA-PTA precipitation analysis (rat hepatoma cells [1]) | DHA-induced degradation of newly synthesized apoB (rat primary hepatocytes [2]) | inhibition of DHA-stimulated apoB100 degradation (rat hepatoma cells [3]) [%] | DHA-increased ROS, TBARS assay, with co-treatment (rat hepatoma cells [4]) | basal level of apoB degradation (rat primary hepatocytes [5]) | ROS level (TBARS) (rat primary hepatocytes [6]) |
| --- | --- | --- | --- | --- | --- | --- | --- | --- |
| Cl.N [ammonium chloride] | > 80 | decreased | no evidence of cell toxicity | no decrease |  |  |  |  |
| vitamin E [Vit E] |  |  |  |  | ~60 | reduced | essentially reversed | reduced |

From patent publication US20030170643A1, “Regulation of apoB treatment and drug screening for cardiovascular and metabolic disorders or syndromes” (priority 1999, published 2003)
